Columns and labels:
Experiment in all cases: Eurofins kinase panel
Type in all cases: biochemical
Conditions in all cases: read-out: Inhibition rate (%)
MKK7β(h) = molecular target: T1, MKK7β(h) (Homo sapiens, UniProt O14733)
T1 construct: purchased Eurofins (KinaseProfiler)
T1 sequence (O14733 1-419): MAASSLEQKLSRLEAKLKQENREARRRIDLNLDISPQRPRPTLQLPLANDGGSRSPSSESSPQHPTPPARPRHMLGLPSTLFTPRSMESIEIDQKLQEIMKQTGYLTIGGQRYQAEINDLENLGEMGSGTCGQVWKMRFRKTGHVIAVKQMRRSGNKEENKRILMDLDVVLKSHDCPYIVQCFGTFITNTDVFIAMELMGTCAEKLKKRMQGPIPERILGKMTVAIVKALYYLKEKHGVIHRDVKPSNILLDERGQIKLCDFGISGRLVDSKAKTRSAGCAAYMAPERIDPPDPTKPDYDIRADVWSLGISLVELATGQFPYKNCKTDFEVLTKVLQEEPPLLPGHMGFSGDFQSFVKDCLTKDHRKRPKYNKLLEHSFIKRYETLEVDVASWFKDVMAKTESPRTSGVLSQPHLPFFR

MLK1(h) = molecular target: T2, MLK1(h) (Homo sapiens, UniProt P80192)
T2 construct: purchased Eurofins (KinaseProfiler)

CaMKIß(h) = molecular target: T3, CaMKIß(h) (Homo sapiens, UniProt Q6P2M8)
T3 construct: purchased Eurofins (KinaseProfiler)

Rsk2(h) = molecular target: T4, Rsk2(h) (Homo sapiens, UniProt P51812)
T4 construct: purchased Eurofins (KinaseProfiler)

CaMKK2(h) = molecular target: T5, CaMKK2(h) (Homo sapiens, UniProt Q96RR4)
T5 construct: purchased Eurofins (KinaseProfiler)

PhKγ1(h) = molecular target: T6, PhKγ1(h) (Homo sapiens, UniProt Q16816)
T6 construct: purchased Eurofins (KinaseProfiler)

IKKα(h) = molecular target: T7, IKKα(h) (Homo sapiens, UniProt O15111)
T7 construct: purchased Eurofins (KinaseProfiler)
T7 sequence (O15111 1-745): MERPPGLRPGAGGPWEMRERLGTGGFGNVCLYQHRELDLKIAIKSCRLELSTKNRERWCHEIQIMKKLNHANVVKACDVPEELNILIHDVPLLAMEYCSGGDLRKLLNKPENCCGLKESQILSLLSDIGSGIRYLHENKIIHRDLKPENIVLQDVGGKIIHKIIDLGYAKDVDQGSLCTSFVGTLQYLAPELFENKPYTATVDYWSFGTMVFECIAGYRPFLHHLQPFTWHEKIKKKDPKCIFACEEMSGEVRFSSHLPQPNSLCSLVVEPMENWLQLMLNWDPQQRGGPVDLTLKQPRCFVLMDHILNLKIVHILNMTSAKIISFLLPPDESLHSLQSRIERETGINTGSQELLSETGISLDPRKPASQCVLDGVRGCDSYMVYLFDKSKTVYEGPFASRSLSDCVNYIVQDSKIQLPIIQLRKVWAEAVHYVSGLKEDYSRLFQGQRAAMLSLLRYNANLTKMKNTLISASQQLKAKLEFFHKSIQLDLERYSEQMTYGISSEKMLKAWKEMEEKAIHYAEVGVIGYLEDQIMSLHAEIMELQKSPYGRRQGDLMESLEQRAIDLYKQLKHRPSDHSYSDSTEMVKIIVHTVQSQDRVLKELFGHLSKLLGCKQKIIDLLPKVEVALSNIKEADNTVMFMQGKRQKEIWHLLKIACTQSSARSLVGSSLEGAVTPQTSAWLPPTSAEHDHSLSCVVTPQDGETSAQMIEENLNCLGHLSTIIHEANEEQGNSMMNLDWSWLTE

[1] = molecular target: T8, PI3 Kinase (p110δ/p85α)(h) (Homo sapiens, UniProt O00329)
T8 construct: purchased Eurofins (KinaseProfiler)

PKCβII(h) = molecular target: T9, PKCβII(h) (Homo sapiens, UniProt P05771)
T9 construct: purchased Eurofins (KinaseProfiler)

MARK3(h) = molecular target: T10, MARK3(h) (Homo sapiens, UniProt P27448)
T10 construct: purchased Eurofins (KinaseProfiler)

HIPK3(h) = molecular target: T11, HIPK3(h) (Homo sapiens, UniProt Q9H422)
T11 construct: purchased Eurofins (KinaseProfiler)

Tie2(Y897S)(h) = molecular target: T12, Tie2(Y897S)(h) (Homo sapiens, UniProt Q02763, Y897S)
T12 construct: purchased Eurofins (KinaseProfiler)

T9 sequence (P05771 1-673 isoform P05771-2): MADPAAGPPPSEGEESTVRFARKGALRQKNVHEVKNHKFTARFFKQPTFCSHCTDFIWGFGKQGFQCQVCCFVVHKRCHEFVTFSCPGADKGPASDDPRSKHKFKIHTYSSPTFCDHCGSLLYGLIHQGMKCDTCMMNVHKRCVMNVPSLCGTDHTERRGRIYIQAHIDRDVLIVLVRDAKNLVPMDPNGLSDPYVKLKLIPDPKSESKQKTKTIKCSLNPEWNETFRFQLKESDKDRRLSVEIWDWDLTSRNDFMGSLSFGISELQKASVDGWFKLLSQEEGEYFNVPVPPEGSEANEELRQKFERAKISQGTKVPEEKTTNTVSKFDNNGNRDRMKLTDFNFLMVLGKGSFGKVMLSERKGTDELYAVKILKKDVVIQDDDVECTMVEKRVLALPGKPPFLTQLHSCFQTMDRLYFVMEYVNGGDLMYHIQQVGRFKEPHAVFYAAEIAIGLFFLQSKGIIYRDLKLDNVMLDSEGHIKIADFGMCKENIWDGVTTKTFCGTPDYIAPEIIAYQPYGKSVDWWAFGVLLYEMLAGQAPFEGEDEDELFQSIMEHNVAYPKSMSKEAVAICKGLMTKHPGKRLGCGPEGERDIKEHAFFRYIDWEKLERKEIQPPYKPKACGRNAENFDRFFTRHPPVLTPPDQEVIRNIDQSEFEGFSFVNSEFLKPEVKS
T2 sequence (P80192 whole entry): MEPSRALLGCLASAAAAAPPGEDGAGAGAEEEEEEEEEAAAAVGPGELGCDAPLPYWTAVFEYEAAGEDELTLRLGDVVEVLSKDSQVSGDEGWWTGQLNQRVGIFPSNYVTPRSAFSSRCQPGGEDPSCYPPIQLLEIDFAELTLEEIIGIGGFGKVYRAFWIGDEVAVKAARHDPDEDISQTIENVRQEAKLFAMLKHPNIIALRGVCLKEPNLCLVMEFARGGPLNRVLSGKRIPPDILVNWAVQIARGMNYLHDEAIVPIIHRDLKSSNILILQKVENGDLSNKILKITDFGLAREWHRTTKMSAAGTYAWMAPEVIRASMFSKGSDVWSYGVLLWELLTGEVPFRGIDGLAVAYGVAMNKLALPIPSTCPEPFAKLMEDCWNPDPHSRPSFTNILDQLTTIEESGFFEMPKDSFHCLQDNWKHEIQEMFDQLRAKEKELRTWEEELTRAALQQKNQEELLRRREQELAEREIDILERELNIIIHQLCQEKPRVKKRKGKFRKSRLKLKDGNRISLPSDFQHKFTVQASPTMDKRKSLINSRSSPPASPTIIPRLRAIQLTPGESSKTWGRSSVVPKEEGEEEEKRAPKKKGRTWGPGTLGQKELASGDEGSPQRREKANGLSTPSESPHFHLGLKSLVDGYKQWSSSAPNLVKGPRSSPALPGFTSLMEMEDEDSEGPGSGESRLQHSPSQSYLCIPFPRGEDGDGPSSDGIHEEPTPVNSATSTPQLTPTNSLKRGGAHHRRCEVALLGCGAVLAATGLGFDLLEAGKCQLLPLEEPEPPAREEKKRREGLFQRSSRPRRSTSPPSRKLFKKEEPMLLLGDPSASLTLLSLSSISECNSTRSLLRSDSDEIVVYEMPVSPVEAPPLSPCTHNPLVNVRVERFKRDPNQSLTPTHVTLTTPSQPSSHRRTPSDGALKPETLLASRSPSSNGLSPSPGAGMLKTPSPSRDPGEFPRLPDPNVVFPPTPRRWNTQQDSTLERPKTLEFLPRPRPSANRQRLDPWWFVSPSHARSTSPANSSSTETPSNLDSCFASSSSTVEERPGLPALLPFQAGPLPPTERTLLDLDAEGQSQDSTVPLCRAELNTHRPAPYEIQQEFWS
T10 sequence (P27448 whole entry): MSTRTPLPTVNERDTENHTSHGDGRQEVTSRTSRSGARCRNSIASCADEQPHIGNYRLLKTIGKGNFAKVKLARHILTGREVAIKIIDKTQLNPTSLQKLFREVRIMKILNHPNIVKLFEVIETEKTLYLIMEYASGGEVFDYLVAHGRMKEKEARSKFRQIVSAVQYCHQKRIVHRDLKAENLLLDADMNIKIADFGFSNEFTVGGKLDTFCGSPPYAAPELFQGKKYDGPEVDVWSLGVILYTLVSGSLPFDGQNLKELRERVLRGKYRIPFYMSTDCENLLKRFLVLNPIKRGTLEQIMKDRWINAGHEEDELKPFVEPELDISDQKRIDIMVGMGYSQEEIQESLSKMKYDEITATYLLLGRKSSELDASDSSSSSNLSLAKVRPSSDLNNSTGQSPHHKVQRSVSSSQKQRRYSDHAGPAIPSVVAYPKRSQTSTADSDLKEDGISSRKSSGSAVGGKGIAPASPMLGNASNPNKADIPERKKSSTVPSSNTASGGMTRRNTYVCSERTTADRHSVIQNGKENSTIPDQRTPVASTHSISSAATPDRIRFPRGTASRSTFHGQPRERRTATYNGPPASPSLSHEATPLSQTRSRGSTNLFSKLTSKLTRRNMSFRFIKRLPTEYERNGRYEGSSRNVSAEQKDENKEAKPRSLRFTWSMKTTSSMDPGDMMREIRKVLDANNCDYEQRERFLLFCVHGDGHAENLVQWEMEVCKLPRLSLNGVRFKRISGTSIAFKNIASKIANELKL
T11 sequence (Q9H422 whole entry): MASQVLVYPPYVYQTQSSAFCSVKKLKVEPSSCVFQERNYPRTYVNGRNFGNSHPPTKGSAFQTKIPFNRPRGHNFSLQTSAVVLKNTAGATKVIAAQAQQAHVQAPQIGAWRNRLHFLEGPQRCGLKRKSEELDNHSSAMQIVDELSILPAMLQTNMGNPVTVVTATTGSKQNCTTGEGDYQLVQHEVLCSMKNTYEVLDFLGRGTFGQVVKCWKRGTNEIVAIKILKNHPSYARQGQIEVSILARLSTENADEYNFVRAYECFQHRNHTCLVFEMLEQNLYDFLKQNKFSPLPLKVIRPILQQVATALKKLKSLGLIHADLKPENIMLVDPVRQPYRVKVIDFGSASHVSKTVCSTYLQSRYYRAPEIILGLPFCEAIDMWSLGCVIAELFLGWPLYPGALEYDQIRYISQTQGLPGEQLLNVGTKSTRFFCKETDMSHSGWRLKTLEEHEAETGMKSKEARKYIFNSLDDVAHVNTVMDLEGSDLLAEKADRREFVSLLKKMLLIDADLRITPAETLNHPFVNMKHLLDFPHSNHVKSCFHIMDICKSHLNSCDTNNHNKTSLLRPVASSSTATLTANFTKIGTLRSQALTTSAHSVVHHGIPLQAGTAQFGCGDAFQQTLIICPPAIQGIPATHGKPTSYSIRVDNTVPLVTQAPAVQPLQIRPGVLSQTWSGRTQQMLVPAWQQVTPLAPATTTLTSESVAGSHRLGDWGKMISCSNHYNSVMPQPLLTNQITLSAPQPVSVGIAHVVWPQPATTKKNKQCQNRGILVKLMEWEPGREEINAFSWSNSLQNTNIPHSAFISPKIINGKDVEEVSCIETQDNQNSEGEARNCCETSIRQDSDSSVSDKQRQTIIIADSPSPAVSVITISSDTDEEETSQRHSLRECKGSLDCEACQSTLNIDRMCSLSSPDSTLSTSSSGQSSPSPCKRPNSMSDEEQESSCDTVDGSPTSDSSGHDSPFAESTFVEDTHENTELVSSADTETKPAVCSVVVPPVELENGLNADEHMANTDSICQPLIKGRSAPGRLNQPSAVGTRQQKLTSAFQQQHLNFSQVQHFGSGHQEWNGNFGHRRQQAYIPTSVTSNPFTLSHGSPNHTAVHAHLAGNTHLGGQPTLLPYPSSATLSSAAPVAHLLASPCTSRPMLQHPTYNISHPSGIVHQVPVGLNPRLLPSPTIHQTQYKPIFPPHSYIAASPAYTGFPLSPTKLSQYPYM
T5 sequence (Q96RR4 whole entry): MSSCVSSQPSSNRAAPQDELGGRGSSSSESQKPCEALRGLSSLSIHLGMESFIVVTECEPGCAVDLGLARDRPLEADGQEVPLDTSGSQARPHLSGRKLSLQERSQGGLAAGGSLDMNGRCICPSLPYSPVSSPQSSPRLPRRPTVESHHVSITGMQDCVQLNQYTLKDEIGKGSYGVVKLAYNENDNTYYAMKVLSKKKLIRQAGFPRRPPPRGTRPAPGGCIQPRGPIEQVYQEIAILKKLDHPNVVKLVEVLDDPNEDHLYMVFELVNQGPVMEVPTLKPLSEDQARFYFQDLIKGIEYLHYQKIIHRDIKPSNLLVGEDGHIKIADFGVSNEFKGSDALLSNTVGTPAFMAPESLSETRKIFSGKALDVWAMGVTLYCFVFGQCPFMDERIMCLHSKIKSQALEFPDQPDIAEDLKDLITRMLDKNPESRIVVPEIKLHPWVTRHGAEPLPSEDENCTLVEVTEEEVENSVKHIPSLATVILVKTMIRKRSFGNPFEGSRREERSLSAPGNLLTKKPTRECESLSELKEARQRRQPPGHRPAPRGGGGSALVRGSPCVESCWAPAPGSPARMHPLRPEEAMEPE
T4 sequence (P51812 whole entry): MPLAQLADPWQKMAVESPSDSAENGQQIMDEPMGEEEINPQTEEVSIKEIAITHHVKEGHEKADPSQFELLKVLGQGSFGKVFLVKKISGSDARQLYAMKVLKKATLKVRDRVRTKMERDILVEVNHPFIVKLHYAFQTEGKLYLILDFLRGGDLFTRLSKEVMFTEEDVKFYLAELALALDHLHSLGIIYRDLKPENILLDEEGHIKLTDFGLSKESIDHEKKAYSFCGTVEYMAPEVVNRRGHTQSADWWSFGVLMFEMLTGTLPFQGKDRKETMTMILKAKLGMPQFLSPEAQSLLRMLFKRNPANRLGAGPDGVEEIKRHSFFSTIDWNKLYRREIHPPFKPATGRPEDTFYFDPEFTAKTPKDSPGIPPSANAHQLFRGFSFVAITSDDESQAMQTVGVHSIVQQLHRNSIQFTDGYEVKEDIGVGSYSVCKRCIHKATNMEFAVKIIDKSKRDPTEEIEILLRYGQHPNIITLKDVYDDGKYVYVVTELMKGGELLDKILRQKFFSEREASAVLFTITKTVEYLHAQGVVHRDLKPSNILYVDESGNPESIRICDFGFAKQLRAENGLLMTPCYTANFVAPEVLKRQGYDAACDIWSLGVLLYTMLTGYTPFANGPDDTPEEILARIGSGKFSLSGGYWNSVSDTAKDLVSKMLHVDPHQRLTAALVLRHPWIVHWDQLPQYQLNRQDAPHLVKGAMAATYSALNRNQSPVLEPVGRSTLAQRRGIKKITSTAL

COc1cc(OC)c(Cl)c(-c2ccc3c(NC(=O)c4ccc(N5CCNC(C)(C)C5)cc4)n[nH]c3n2)c1Cl [3D185]
inhibition at 0.01 µM (MKK7β(h); 10 nM): 9% | inhibition at 0.1 µM (MKK7β(h); 100 nM): -2% | inhibition at 1 µM (MKK7β(h); 1000 nM): 12% | inhibition at 0.01 µM (MLK1(h); 10 nM): -9% | inhibition at 0.1 µM (MLK1(h); 100 nM): -1% | inhibition at 1 µM (MLK1(h); 1000 nM): 26% | inhibition at 0.01 µM (CaMKIß(h); 10 nM): -2% | inhibition at 0.1 µM (CaMKIß(h); 100 nM): 6% | inhibition at 1 µM (CaMKIß(h); 1000 nM): 32% | inhibition at 0.01 µM (Rsk2(h); 10 nM): -19% | inhibition at 0.1 µM (Rsk2(h); 100 nM): 0% | inhibition at 1 µM (Rsk2(h); 1000 nM): 24% | inhibition at 0.01 µM (CaMKK2(h); 10 nM): -4% | inhibition at 0.1 µM (CaMKK2(h); 100 nM): -22% | inhibition at 1 µM (CaMKK2(h); 1000 nM): 4% | inhibition at 0.01 µM (PhKγ1(h); 10 nM): -1% | inhibition at 0.1 µM (PhKγ1(h); 100 nM): -9% | inhibition at 1 µM (PhKγ1(h); 1000 nM): -12% | inhibition at 0.01 µM (IKKα(h); 10 nM): -3% | inhibition at 0.1 µM (IKKα(h); 100 nM): -3% | inhibition at 1 µM (IKKα(h); 1000 nM): -7% | inhibition at 0.01 µM ([1]; 10 nM): 1% | inhibition at 0.1 µM ([1]; 100 nM): -4% | inhibition at 1 µM ([1]; 1000 nM): 5% | inhibition at 0.01 µM (PKCβII(h); 10 nM): -12% | inhibition at 0.1 µM (PKCβII(h); 100 nM): -1% | inhibition at 1 µM (PKCβII(h); 1000 nM): -8% | inhibition at 0.01 µM (MARK3(h); 10 nM): 7% | inhibition at 0.1 µM (MARK3(h); 100 nM): -6% | inhibition at 1 µM (MARK3(h); 1000 nM): -4% | inhibition at 0.01 µM (HIPK3(h); 10 nM): -2% | inhibition at 0.1 µM (HIPK3(h); 100 nM): -12% | inhibition at 1 µM (HIPK3(h); 1000 nM): -8% | inhibition at 0.01 µM (Tie2(Y897S)(h); 10 nM): 14% | inhibition at 0.1 µM (Tie2(Y897S)(h); 100 nM): 39% | inhibition at 1 µM (Tie2(Y897S)(h); 1000 nM): 88%

From article PMC6704710, “Preclinical evaluation of 3D185, a novel potent inhibitor of FGFR1/2/3 and CSF-1R, in FGFR-dependent and macrophage-dominant cancer models” (Journal of Experimental & Clinical Cancer Research : CR, 2019)
